# Reference: US20240316043A1, “BROMODOMAIN INHIBITORS FOR CANCER THERAPY” (University of Tennessee Research Foundation, priority 2023, published 2024)
# Entries after “also recorded” stand apart in the source; their conditions may differ.
# Tests used:
# [1] = test system: TMZ-sensitive GBM cells and TMZ-resistant GBM cells; conditions: cited from earlier work
# MT330 GBM cells [2] = assay: Cell death ELISA in MT330 GBM cells; type: cell-based; conditions: for enhancement of TMZ-induced cell death: 10 mM inhibitor in combination with 200 mM of TMZ
# Procedure: Control cells were treated with vehicle (DMSO). Cell death was determined at 72 hr after treatment by a cell death ELISA that quantifies histone-complexed DNA fragments. […]
# Parental and BRG1 knockout MT330 cells were treated with bleomycin (0.01 μM) and bromodomain inhibitors […]. After 72 hr, cell death was determined by cell death ELISA.
# The biological activity of bromodomain inhibitors was assessed for the ability to enhance TMZ-induced cell death. In brief, MT330 cells were treated with […] of bromodomain inhibitors alone, or in combination with […] of TMZ for 72 hrs, and GBM cell death was determined by a commercial ELISA.
# LN229 GBM cells = assay: γH2Ax immunostaining after TMZ; type: cell-based; parameters: dose or concentration left out as unconfirmed; conditions: 24 hrs, FIG. 11
# Procedure: After treatment for 24 hrs, cells were fixed and immunostained for gH2Ax. Analysis of immunostaining was performed on a laser confocal microscope.
# As TMZ is DNA damaging agent, we tested the ability of various bromodomain inhibitors to enhance TMZ-induced DNA damage as evidence by immunostaining of GBM cells with γH2Ax and examination of the staining on a confocal microscope. γH2AX is the phosphorylated version of the histone variant H2Ax and is a highly specific and sensitive marker for monitoring DNA damage initiation and resolution. […] Similar results were obtained with MT330 GBM cells.
# BRG1/BRM = conditions: cited from earlier work
# GBM tumors = conditions: intracranial GBM animal model; cited from earlier work
# MT330 cells = assay: γH2Ax immunostaining after bleomycin; type: cell-based; conditions: FIG. 8
# Procedure: After 1 hr of bleomycin treatment cell death, cells were fixed and immunostained for γH2Ax. Analysis of immunostaining was performed on at least 1,000 cells on the Lionheart FX imaging system.
# Bleomycin is a chemotherapeutic drug that is used to treat various cancers. […] Thus, the ability of bleomycin to induce DNA damage as evidence by immunostaining of MT330 cells and LN229 with γH2Ax was tested. Quantification of cell staining was determined on the Lionheart FX imaging station.
# [3] = test system: 12 primary human cell based systems; conditions: cited from earlier work
# BRG1 bromodomain = biological target: T1, BRG1 bromodomain (Homo sapiens, UniProt P51532); assay: Cellular thermal shift assay (CETSA), BRG1 bromodomain construct in MT330 cells; type: binding; parameters: binding to the BRG1 BRD: dose or concentration left out as unconfirmed; conditions: for selectivity BRG1 versus BRM bromodomain: conclusion from CETSA and knockout cells
# T1 construct: expressed in transfected cells; host or cells: MT330 glioblastoma cells
# Procedure: After heating over a temperature range from 44.5° C. to 55.6° C. for 5 min, the cells were lysed, placed on ice at 4° C. and then immunoblotted for BRG1 or actin.
# (§1) For the CETSA, MT330 cells expressing the BRM (FIG. 6B), or BRG1 (FIG. 6C) the BRD construct were treated with bromodomain inhibitors […] and immunoblotted as indicated.
# (§2) After heating over a temperature range from 44.5° C. to 55.6° C. for 5 min, MT330 cells were lysed and then immunoblotted for BRG1 or BRM.
# MT330 GBM cells [4] = assay: Cell death ELISA in MT330 GBM cells; type: cell-based; conditions: TMZ (500 μM) and bromodomain inhibitors (10 μM), 24 hr, FIG. 6A
# [5] = test system: intracranial GBM xenografts (MT330 cells); assay: Orthotopic GBM model, MT330 cells injected into brains of NSG mice; type: in vivo; conditions: combination with TMZ (10 mg/Kg), IV-255 or IV-275 (20 mg/Kg) IP 3 times per week, 3-4 weeks after treatment, versus either agent alone, FIG. 10
# Procedure: MT330 cells (10^6) were injected into the brains of NSG female mice. After tumors were identified by BLI (˜10 days post-injection), mice were IP injected with TMZ (60 mg/Kg body weight) or IV-129 (10 mg/Kg) alone or in combination 3 times per week (5 mice per group) for 2 weeks. […] FIG. 5C Kaplan-Meier analysis of the survival data (5 mice/group) of the brain tumor-bearing mice was performed.
# MT330 cells […] were injected into the brains of NSG female mice. After tumors were identified by BLI (˜10 days post-injection), mice were IP injected with TMZ (10 mg/Kg body weight), IV-255 or IV-275 (20 mg/Kg) alone or in combination 3 times per week (5 mice/group).
# Luciferase-expressing MT330 cells were injected into the brains of immunocompromised NSG mice. Once tumors were identified by bioluminescence imaging (BLI) at ˜10 days after tumor cell injection, mice were subjected to intraperitoneal injection of TMZ or YH-IV-129 alone, or in combination. At 20 days after initiation of treatment, live animal imaging was performed on an IVIS Lumina instrument. […] The mean survival of control mice was 27 days after cell injection (FIG. 5C).
# Luciferase-expressing MT330 cells were injected into the brains of immunocompromised NSG mice. Once tumors were identified by bioluminescence imaging (BLI) at ˜10 days after tumor cell injection, mice were subjected to intraperitoneal injection of TMZ or YH-IV-255 or YH-IV-275 alone, or in combination. […] This is compelling preliminary evidence that these two new compounds have potent anticancer activity in intracranial GBM xenografts when combined with standard-of-care TMZ chemotherapy and that these drugs cross the blood-brain barrier.
# BRM bromodomain = biological target: T2, BRM bromodomain (Homo sapiens, UniProt P51531); assay: Cellular thermal shift assay (CETSA), BRM bromodomain construct in MT330 cells; type: binding; parameters: binding to the BRM BRD: dose or concentration left out as unconfirmed; conditions: CETSA, FIG. 6B
# T2 construct: expressed in transfected cells; host or cells: MT330 glioblastoma cells
# Procedure: as §1, §2
# [6] = test system: BRG1 knockout MT330 cells; assay: Cell death ELISA in BRG1 knockout MT330 cells; type: cell-based; conditions: 72 hr
# Procedure: (§3) BRG1 and BRM knockout MT330 cells were treated with TMZ (500 μM) and bromodomain inhibitors (10 μM). After 72 hr, cell death was determined by a cell death ELISA.
# Parental and BRG1 knockout MT330 cells were treated with bleomycin (0.01 μM) and bromodomain inhibitors (10 μM). After 72 hr, cell death was determined by cell death ELISA.
# (§4) To further characterize the specificity of YH-IV-255 for the BRG1 bromodomain, GBM cell lines were generated with either BRG1 or BRM knocked out by CRISPR/Cas9 gene editing.^14 These cells were isolated by puromycin selection and the knockout of the either subunit was validated by immunoblotting.
# BRM knockout MT330 cells = assay: Cell death ELISA in BRM knockout MT330 cells; type: cell-based; conditions: TMZ (500 μM) and bromodomain inhibitors (10 μM), 72 hr, FIG. 7
# Procedure: as §3, §4
# T1 sequence (P51532 1453-1564 limits assumed): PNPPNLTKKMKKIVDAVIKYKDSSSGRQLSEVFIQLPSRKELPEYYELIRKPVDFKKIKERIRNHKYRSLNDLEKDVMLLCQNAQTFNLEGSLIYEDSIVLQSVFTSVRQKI
# T2 sequence (P51531 1378-1506 limits assumed): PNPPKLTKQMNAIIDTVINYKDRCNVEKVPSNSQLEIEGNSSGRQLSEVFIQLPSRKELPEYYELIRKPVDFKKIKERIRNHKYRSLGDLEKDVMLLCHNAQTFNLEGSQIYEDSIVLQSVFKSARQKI
structure (smiles),measurement,setting,value
O=C(/C=C/N1C[C@H]2C[C@@H]1CN2c1ccccn1)c1ccccc1O [PFI-3],enhancement of antiproliferation activity and cell death-inducing effects of TMZ,[1],enhanced the antiproliferation activity and cell death-inducing effects of temozolomide
same,enhancement of TMZ-induced cell death,"MT330 GBM cells [2]; 72 hrs, FIG. 1",markedly increased the sensitivity of GBM cells to TMZ-induced cell death
same,"cell death, inhibitor alone","MT330 GBM cells [2]; 10 mM of bromodomain inhibitors alone, 72 hrs, FIG. 1",did not induce cell death
same,"γH2Ax staining, inhibitor with TMZ",LN229 GBM cells,marked increase in γH2Ax staining
same,Kd,BRG1/BRM,< 100 nM
same,survival of animals bearing GBM tumors treated with TMZ,GBM tumors,increase in survival
same,"γH2Ax staining, PFI-3 alone",MT330 cells; PFI-3 (5 μM) alone,no effect on γH2Ax staining
same,"γH2Ax staining, PFI-3 pretreatment followed by bleomycin",MT330 cells; pretreated for 1 hr with PFI-3 (5 μM) followed by bleomycin (0.5 and 2 μM),increased number of both γH2Ax positive cells and signal intensity of staining; also recorded: sensitized GBM cells to DNA damage induced by Bleomycin
same,inhibitory effects against a range of cellular endpoints,[3],inhibitory effects were not observed
"COc1ccc(N2C[C@H]3C[C@@H]2CN3C(=O)Nc2ccc(F)c(F)c2)cc1 [YH-IV-255, (1R,4R)-N-(3,4-difluorophenyl)-5-(4-methoxyphenyl)-2,5-diazabicyclo[2.2.1]heptane-2-carboxamide]",binding to the BRG1 BRD,"BRG1 bromodomain; CETSA, FIG. 6C",bind equivalently to the BRG1 BRD
same,selectivity BRG1 versus BRM bromodomain,BRG1 bromodomain,selective BRG1 bromodomain inhibitor; also recorded: selective inhibitor the BRG-1 bromodomain
same,selectivity BRG1 versus BRM bromodomain,BRG1 bromodomain; listed as IV-255,binds selectively to the BRG1 BRD
same,enhancement of TMZ-induced cell death,"MT330 GBM cells [2]; 72 hrs, FIG. 1",better efficacy than PFI-3; also recorded: somewhat more bioactive than YH-IV-129; also recorded: markedly enhanced TMZ sensitivity of GBM cells in vitro as compared to PFI-3
same,enhancement of bleomycin-induced cell death,"MT330 GBM cells [2]; bleomycin (0.01 μM) and bromodomain inhibitors (10 μM), 72 hr, FIG. 9",sensitized GBM cells to bleomycin-induced cell death
same,"cell death, inhibitor alone","MT330 GBM cells [2]; bromodomain inhibitors (10 μM) alone, 72 hr, FIG. 9","none of the bromodomain inhibitors (YH-IV-129, YH-IV-255 and YH-IV-275) alone had any death inducing activity"
same,TMZ sensitivity (TMZ-induced cell death),MT330 GBM cells [4],similarly increase the TMZ sensitivity of GBM cells
same,TMZ sensitivity (TMZ-induced cell death),MT330 GBM cells [4]; listed as IV-255,potent sensitizer to TMZ-induced cell death
same,bioluminescent signal in the brain,[5],decreased the bioluminescent signal in the brain
same,"γH2Ax staining, inhibitor with TMZ",LN229 GBM cells,marked increase in γH2Ax staining
same,binding to the BRM BRD,BRM bromodomain,does not bind
same,enhancement of TMZ-induced cell death,"[6]; TMZ (500 μM) and bromodomain inhibitors (10 μM), FIG. 7",no such activity in BRG1 knockout GBM cells; also recorded: not BRG1 knockout cells
same,enhancement of bleomycin-induced cell death,"[6]; bleomycin (0.01 μM) and bromodomain inhibitors (10 μM), FIG. 9",ablated in BRG1 knockout MT330 cells
same,enhancement of TMZ-induced cell death,BRM knockout MT330 cells,very similar activity in enhancing the cell death inducing activity in BRM knockout GBM cells; also recorded: sensitized BRM knockout GBM cells
